Data: patent US7482321B2, “Extended glucagon-like peptide-1 analogs” (Eli Lilly and Company, priority 2002, dated 2009)
Values joined by “and” are separate entries in the source; they are usually repeats but may differ in a detail not shown here. Equal entries are not always repeated. Where two headings read alike, the source gives them in different places. Marks after values point to notes of the source that are not given here. Ends that are not written are not given here.

Key:
[1] = Pharmacokinetics after single intravenous dose in rats; details: single i.v. 10 μg/kg; for level at 5 min / level at 0.25 h / level at 0.5 h / level at 1 h / level at 2 h: Sprague Dawley, plasma, Plasma Concentration; for level at 1 h: 60 min; for AUC0-last / Cl / Cmax / Vss / t½ / AUC(0-t) / clearance / Vd / half-life: Sprague Dawley rats; for AUC(0-t): AUC0-last; for clearance: Cl; for Vd: Vss; for half-life: t½
Description: Pharmacokinetic parameters were determined for the following 5 different extended GLP-1 peptides:
Parameters were determined following a single intravenous dose of 10 μg/kg in four different rats.

[2] = Dog hyperglycemic clamp study, GLP-1 peptide concentration; set-up: species or system dogs; details: in vivo, iv
Description: Several different extended and non-extended GLP-1 peptides were tested for activity in a hyperglycemic clamp study in dogs. Glucose was infused for 200 minutes to maintain constant levels. For the first 80 minutes dogs were infused intravenously with vehicle to establish a baseline insulin concentration. For the next 60 minutes, GLP-1 peptides were administered at a rate of 1 pmol/kg/min. For the final 60 minutes the infusion rate of each GLP-1 compound was increased to 3 pmol/kg/min. Blood samples were taken periodically for the determination of insulin and GLP-1 peptide concentrations. Insulin change values were calculated as the difference between the value at time t and the average value during the last 20 minutes of the control period (60-80) minutes and are presented in Table 3. Areas under the insulin change curves were calculated using the trapezoidal rule over the last 30 minutes of each infusion period. Values listed are the means±standard error of the mean (SEM).

[3] = in vivo; details: Sprague Dawley, rat, iv, 10 ug/kg, Plasma Concentration
[4] = rat, in vivo, iv, 10 ug/kg
[5] = rat, iv, 10 ug/kg, 5 min, Mean of 4 rats
[6] = rat, iv, 10 ug/kg, 5 min, individual rats
[7] = rat, iv, 10 ug/kg, 15 min, Mean of 4 rats
[8] = rat, iv, 10 ug/kg, 15 min, individual rats
[9] = rat, iv, 10 ug/kg, 30 min, Mean of 4 rats
[10] = rat, iv, 10 ug/kg, 30 min, individual rats
[11] = rat, iv, 10 ug/kg, Mean of 4 rats (values below LLOQ taken as zero)
[12] = rat, iv, 10 ug/kg, individual rats
[13] = rat, iv, 10 ug/kg, 120 min, individual rats
[14] = rat, in vivo, iv, 10 ug/kg, Mean of 4 rats
[15] = rat, in vivo, iv, 10 ug/kg, individual rats
[16] = rat, in vivo, iv, 10 ug/kg, Cmax, Mean of 4 rats
[17] = rat, in vivo, iv, 10 ug/kg, Cmax, individual rats
[18] = infusion rate 1 pmol/kg/min i.v., dog hyperglycemic clamp, after 60 minutes of infusion, mean ± SEM, read-out: Compound Concentration (t = 60′)
[19] = infusion rate 3 pmol/kg/min i.v., dog hyperglycemic clamp, after 60 minutes of infusion, mean ± SEM, read-out: Compound Concentration (t = 60′)

Molecule | Plasma Concentration ([1]; 120 min, individual rats) | level at 5 min [1, 5] [ng/mL] | level at 0.25 h [1, 7] [ng/mL] | level at 0.5 h [1, 9] [ng/mL] | level at 1 h [1, 11] [ng/mL] | AUC0-last ([1]; individual rats) | Cl ([1]; individual rats) | Cmax ([1]; individual rats) | Vss ([1]; individual rats) | t½ ([1]; individual rats) | AUC(0-t) [1, 14] [ng·h/mL] | AUC(0-t) [1, 15] [ng·h/mL] | clearance [1, 14] [mL/min/kg] | clearance [1, 15] [mL/min/kg] | Cmax [1, 16] [ng/mL] | Vd [1, 14] [L/kg] | half-life [1, 14] [min] | level at time molar at 1 h ([2]; dog, 1 pmol/kg/min) [nM] | level at time molar at 1 h ([2]; dog, 3 pmol/kg/min) [nM] | also measured
CC[C@H](C)[C@H](NC(=O)[C@H](Cc1ccccc1)NC(=O)[C@H](CCC(=O)O)NC(=O)[C@H](CCCCN)NC(=O)[C@H](C)NC(=O)[C@H](C)NC(=O)[C@H](CCC(N)=O)NC(=O)CNC(=O)[C@H](CCC(=O)O)NC(=O)[C@H](CC(C)C)NC(=O)[C@H](Cc1ccc(O)cc1)NC(=O)[C@H](CO)NC(=O)[C@H](CO)NC(=O)[C@@H](NC(=O)[C@H](CC(=O)O)NC(=O)[C@H](CO)NC(=O)[C@@H](NC(=O)[C@H](Cc1ccccc1)NC(=O)[C@@H](NC(=O)CNC(=O)[C@H](CCC(=O)O)NC(=O)[C@@H](NC(=O)[C@@H](N)Cc1c[nH]cn1)C(C)C)[C@@H](C)O)[C@@H](C)O)C(C)C)C(=O)N[C@@H](C)C(=O)N[C@@H](Cc1c[nH]c2ccccc12)C(=O)N[C@@H](CC(C)C)C(=O)N[C@H](C(=O)N[C@@H](CCCCN)C(=O)NCC(=O)N[C@@H](CCCNC(=N)N)C(=O)NCC(=O)N[C@@H](CO)C(=O)N[C@@H](CO)C(=O)NCC(=O)N[C@@H](C)C(=O)N1CCC[C@H]1C(=O)N1CCC[C@H]1C(=O)N1CCC[C@H]1C(=O)N[C@@H](CO)C(=O)O)C(C)C [Compound 4] | <150 ^a pg/mL | 23.6 | 9.86 | 3.18 | 0.636 | 486.7 ng·min/mL and 424.9 ng·min/mL and 461.5 ng·min/mL | 20.5 mL/min/kg and 23.5 mL/min/kg and 21.7 mL/min/kg | 24.9 ng/mL and 20.0 ng/mL and 24.0 ng/mL | 0.2511 L/kg and 0.3159 L/kg and 0.2492 L/kg | 11.9 min and 11.2 min and 11.0 min | 8.05 | 9.33 | 20.9 | 17.9 | 23.6 | 0.269 | 11.5 |  |  | Plasma Concentration ([1]; 5 min, individual rats): 24853 pg/mL; level at 5 min [1, 6]: 25.4 ng/mL; level at 0.25 h [1, 8]: 12.1 ng/mL; level at 0.5 h [1, 10]: 4.37 ng/mL; level at 1 h [1, 12]: 0.869 ng/mL; level at 2 h [1, 13]: < 0.15 ng/mL; Cmax [1, 17]: 25.4 ng/mL; Vd [1, 15]: 0.259 L/kg; half-life [1, 15]: 12 min
HVEGTFTSDVSSYLEEQAAKEFIAWLIKGGPSSGAPPPS [SEQ ID NO:55] |  |  |  |  |  |  |  |  |  |  |  |  |  |  |  |  |  | 0.246 ± 0.017 | 0.766 ± 0.046 | 
HVEGTFTSDVSSYLEEQAAKEFIAWLIKGGPSSGDPPPS [Compound 2] | <150 ^a pg/mL | 17.3 | 6.82 | 2.95 | 1.05 | 312.2 ng·min/mL and 430.0 ng·min/mL and 409.1 ng·min/mL | 32.0 mL/min/kg and 23.3 mL/min/kg and 24.4 mL/min/kg | 9.8 ng/mL and 16.9 ng/mL and 21.4 ng/mL and 21.1 ng/mL | 0.9739 L/kg and 0.3557 L/kg and 0.2833 L/kg and 0.3134 L/kg | 35.8 min and 12.3 min and 10.6 min and 14.4 min | 6.93 | 8.55 | 24.8 | 19.5 | 17.3 | 0.482 | 18.3 |  |  | level at time molar at 1 h [2, 18]: 0.204 ± 0.024 nM; level at time molar at 1 h [2, 19]: 0.755 ± 0.072 nM
HVEGTFTSDVSSYLEEQAAKEFIAWLIKGGPSSGDPPPS-NH2 [Compound 1] | <150 ^a pg/mL | 23.5 | 9.61 | 3.1 | 0.554 | 478.8 ng·min/mL and 448.5 ng·min/mL and 469.4 ng·min/mL | 20.9 mL/min/kg and 22.3 mL/min/kg and 21.3 mL/min/kg | 24.1 ng/mL and 22.8 ng/mL and 22.4 ng/mL | 0.2463 L/kg and 0.2657 L/kg and 0.2704 L/kg | 10.1 min and 10.9 min | 7.92 | 8.41 | 21.1 | 19.8 | 23.5 | 0.264 | 11 |  |  | level at time molar at 1 h [2, 18]: 0.268 ± 0.045 nM; level at time molar at 1 h [2, 19]: 0.977 ± 0.135 nM; Plasma Concentration ([1]; 30 min, individual rats): 3119 pg/mL; level at 5 min [1, 6]: 24.6 ng/mL; level at 0.25 h [1, 8]: 10 ng/mL; level at 0.5 h [1, 10]: 3.12 ng/mL; level at 2 h [1, 13]: < 0.15 ng/mL; Cmax [1, 17]: 24.6 ng/mL; Vd [1, 15]: 0.273 L/kg; half-life [1, 15]: 13.1 min
HVEGTFTSDVSSYLEEQAAKEFIAWLVKGRGSSGAPPPS [Compound 3] | <150 ^a pg/mL | 23.2 | 8.81 | 3.44 | 0.657 | 465.6 ng·min/mL and 492.5 ng·min/mL and 409.1 ng·min/mL | 21.5 mL/min/kg and 20.3 mL/min/kg and 24.4 mL/min/kg | 22.7 ng/mL and 24.3 ng/mL and 21.1 ng/mL | 0.2805 L/kg and 0.2624 L/kg and 0.3134 L/kg | 11.7 min and 12.0 min and 14.4 min | 7.96 | 7.78 | 21 | 21.4 | 23.3 | 0.277 | 12.1 |  |  | Plasma Concentration ([1]; 15 min, individual rats): 8467 pg/mL; level at 5 min [1, 6]: 23.6 ng/mL; level at 0.25 h [1, 8]: 8.6 ng/mL; level at 0.5 h [1, 10]: 3 ng/mL; level at 1 h [1, 12]: 0.566 ng/mL; level at 2 h [1, 13]: < 0.15 ng/mL; Cmax [1, 17]: 23.6 ng/mL; Vd [1, 15]: 0.263 L/kg; half-life [1, 15]: 11.6 min
HVEGTFTSDVSSYLEEQAVKEFIAWLIKGGPSSGAPPPRG [SEQ ID NO:48] |  |  |  |  |  |  |  |  |  |  |  |  |  |  |  |  |  | 0.227 ± 0.04 | 1.09 ± 0.106 | 
HVEGTFTSDVSSYLEEQAVKEFIAWLIKGGPSSGAPPPS [SEQ ID NO:42] |  |  |  |  |  |  |  |  |  |  |  |  |  |  |  |  |  | 0.276 ± 0.036 | 1.11 ± 0.139 | 
HVEGTFTSDVSSYLEEQAVKEFIAWLIKGGPSSGAPPPS-NH2 [SEQ ID NO:13] |  |  |  |  |  |  |  |  |  |  |  |  |  |  |  |  |  | 0.366 ± 0.059 | 1.32 ± 0.211 | 
HVEGTFTSDVSSYLEEQAVKEFIAWLIKGGPSSGAPPPSH [SEQ ID NO:43] |  |  |  |  |  |  |  |  |  |  |  |  |  |  |  |  |  | 0.306 ± 0.02 | 1.06 ± 0.034 | 
HVEGTFTSDVSSYLEEQAVKEFIAWLIKGRGSSGAPPPS [SEQ ID NO:35] |  |  |  |  |  |  |  |  |  |  |  |  |  |  |  |  |  | 0.267 ± 0.031 | 1.04 ± 0.103 | 
HVEGTFTSDWSSYLEEQAAKEFIAWLIKGRGSSGAPPPS [Compound 5] |  |  |  |  |  |  |  |  |  |  |  |  |  |  |  |  |  |  |  | level at 5 min [3]: 35.9 ng/mL; level at 0.25 h [3]: 16.1 ng/mL; level at 2 h [3]: < 0.15 ng/mL; AUC(0-t) ([4]; AUC0-last): 12.5 ng·h/mL; clearance ([4]; Cl): 13.4 mL/min/kg; Cmax ([4]; Cmax): 35.9 ng/mL; Vd ([4]; Vss): 0.179 L/kg; half-life ([4]; t½): 11.9 min
